Reference: patent US20070123518A1, “Product designed to protentiate the therapeutic effects and to enhance the action of medicinal preparations” (priority 2003, published 2007)

Legend:
Type in all cases: in vivo
[1] = tested on: rats in conflict situation; assay: Conflict situation model of Vogel, phenazepam
Procedure: Anxiolytic activity of phenazepam was studied by conflict situation model of Vogel J., 1971 in rats. Phenazepam was applied in 1) therapeutic dose, 2) activated form or 3) combination of therapeutic dose of phenazepam and activated form of the same medication. Therapeutic doses of Phenazepam (1 mg/kg) were injected intraperitoneally; activated form containing the mixture of homeopathic dilutions C12+C30+C200, was given at 2.5 ml/kg of animal's body weight intraperitoneally; combined treatment included simultaneous injections of both forms in two different syringes. The effect was evaluated after 20 minutes following to medication injections by the quantity of punished water intakes.

[2] = tested on: rats in conflict situation; assay: Conflict situation model of Vogel, ethanol in drinking bowl; details: solution in the drinking bowl, mixture 10:1 volumetric ratio
Procedure: Anxiolytic effect was evaluated in accordance with the number of punished water intakes.

[3] = tested on: Rat model of adjuvant arthritis; assay: Rat model of adjuvant arthritis (complete Freund's adjuvant), prednisone; details: rats, into the stomach; prednisone 2 mg/kg; activated form D24+D60 2.5mg/kg; combined 10:1
Procedure: Rat model of adjuvant arthritis induced by single subplantar injection of 100 μl of complete Freund's adjuvant was applied for evaluation of anti-inflammatory activity of glucocorticosteroid agent—prednisone in following treatment choices: a) therapeutic dose, b) activated (potentiated) form (ultra-low dose), c) combined treatment with therapeutic dose and activated form. Soon after the injection of complete Freund's adjuvant animals (10 rats per group) received prednisone in therapeutic dose, in activated form or their combination (control—distilled water)—for 14 days.
2 mg/kg prednisone (water solution) was given into the stomach; activated form of prednisone in ultra-low doses—mixture of homeopathic dilutions D24+D60 was injected in the form of water solution at the dose of 2.5mg/kg of animal's body weight into stomach; both forms mixed at 10:1 ratio were injected at one time during combined treatment.
Severity of inflammatory damage to each extremity (0 to 4) and overall index of arthritis severity (0 to 16) were assessed once per 1-2 days. Functional disturbances, erythema, edema and deformation of extremities were taken into account. Anti-inflammatory efficacy of the medications was evaluated in accordance with reduction of overall index of arthritis severity by the 2-3rd and 14th days of treatment.

[4] = tested on: patients suffering from generalized anxiety syndrome; assay: Hamilton's scale of anxiety in patients with generalized anxiety syndrome, diazepam
Description: Benzodiazepines represent reference medications for the treatment of anxious states. However, application of benzodiazepines is frequently associated with adverse effects that require dose reduction to minimal effective doses. Investigation of impacts induced by ultra-low doses of activated form of diazepam on the anxiolytic activity of therapeutic doses of diazepam was accomplished in 20 patients suffering from generalized anxiety syndrome characterized with the anxiety level consistent with at least 20 grades of Hamilton's scale of anxiety. Patients received tablets containing activated form of diazepam in ultra-low doses (homeopathic dilution C200, equivalent concentration—10^−400M mass concentration)—1 tablet 4 times a day for 14 days. Thereafter, beginning from 15th to 30th day of therapy patients were took per oral diazepam at the dose of 2 mg qid day (daily dose—8 mg) followed by administration of ultra-low doses of activated form of the very medication 4 tablets per day for 7 days and by combined treatment implicating simultaneous intake of activated form (4 tablets a day) and diazepam (8 mg per day) for 14 days. Anxiety level was evaluated by means of Hamilton's scale at baseline and after each stage of therapy.

[5] = tested on: patients suffering from definite rheumatoid arthritis (oligoarthritis); assay: Clinical trial in rheumatoid arthritis (oligoarthritis), duration of effect of hydrocortisone injections; details: 20 patients, hydrocortisone 20-25 mg peri- or intra-articular; activated form per os over 8 weeks
Procedure: Twenty patients suffering from definite rheumatoid arthritis (oligoarthritis) necessitating peri- or intra-articular injections of hydrocortisone were included in the clinical trial of influences of activated form (ultra-low doses) of anti-inflammatory agent—hydrocortisone on the therapeutic activity of hydrocortisone in relation with arthritis manifestations. At baseline all patients required injections of 20-25 mg hydrocortisone 2-3 times a week (up on request). Over 8 weeks patients received activated form of hydrocortisone in ultra-low doses per orally—1 tablet for dissolution in the mouth (activated form—mixture of homeopathic dilutions C12+C30+C200, equivalent concentration 10^−24M mass concentration) together with injections. Impacts of activated form were evaluated in accordance with duration of periods, when patients were independent from hydrocortisone injections.

O=C1CN=C(c2ccccc2Cl)c2cc(Br)ccc2N1 [Phenazepam, phenazepam]
Number of punished water intakes ([1]; rats, intraperitoneally, 20 minutes after injection, phenazepam 1 mg/kg, activated form 2.5 ml/kg): 415.67 ± 113.96 | anxiolytic activity (in words) ([1]; versus control): possesses anxiolytic activity

CCO [Ethanol 10%, ethanol]
Number of punished water intakes [2]: 317.2 ± 41.0

C[C@]12C=CC(=O)C=C1CC[C@@H]1[C@@H]2C(=O)C[C@@]2(C)[C@H]1CC[C@]2(O)C(=O)CO [Prednisone, prednisone]
Arthritis severity index by 14th day of therapy [3]: 5.4 ± 1.7 grades | Arthritis severity index by the 2-3rd day of therapy [3]: 2.1 ± 0.4 grades

CN1C(=O)CN=C(c2ccccc2)c2cc(Cl)ccc21 [diazepam]
Overall level of anxiety in accordance with Hamilton's scale ([4]; 20 patients, after the stage of therapy: activated form 2 weeks, then diazepam 8 mg/day, last stage combined 14 days): 16.2 ± 2.5 grades | improvement versus baseline ([4]; Hamilton's scale, after the stage of therapy): 26% | anxiolytic effect (in words) ([4]; dynamic changes in anxiety level): does not yield achievement of pronounced decline of anxiety

C[C@]12CCC(=O)C=C1CC[C@@H]1[C@@H]2[C@@H](O)C[C@@]2(C)[C@H]1CC[C@]2(O)C(=O)CO [Hydrocortisone, hydrocortisone]
Duration effects of injections (time lag between injections "upon request") [5]: 2.8 ± 0.3 days
